# In US11312721B2 (priority 2015, dated 2022):
# “Also recorded” adds a separate entry of the source. Where two headings read alike, the source gives them in different places.
# Experiments:
# [1] = type: in vivo, Long Evans rats; conditions: i.v.
# Experimental: (§1) Food and water were available ad libitum.
# For plasma exposures, blood samples were centrifuged at 14000 rpm for 16 minutes. After centrifuging, 50 ul of supernatant (plasma) from each sample was added to 200 μl of acetonitrile plus 0.1% formic acid. […] Samples were sonicated for 5 minutes in an ultrasonic water bath, followed by centrifugation for 30 minutes, at 16000 RPM. 100 ul of supernatant was removed from each sample vial and placed in a new glass auto sample vial, followed by the addition of 300 μl of sterile water (pH 6.5).
# Additional studies were conducted in aged Long-Evans rats in order to determine the exposures at the behaviorally relevant doses in the cognition studies. Exposure in young Long-Evans rats was also determined to bridge with the receptor occupancy studies that were conducted in young Long-Evans rats. Exposures in young and aged Long-Evans rats were relatively similar (Table 4, FIG. 4).
# α5-containing GABAA R = α5-containing GABAA R (Homo sapiens, UniProt P18507+P31644); conditions: (EC20); cited from earlier work
# Sequence of α5-containing GABAA R (P31644 32-462): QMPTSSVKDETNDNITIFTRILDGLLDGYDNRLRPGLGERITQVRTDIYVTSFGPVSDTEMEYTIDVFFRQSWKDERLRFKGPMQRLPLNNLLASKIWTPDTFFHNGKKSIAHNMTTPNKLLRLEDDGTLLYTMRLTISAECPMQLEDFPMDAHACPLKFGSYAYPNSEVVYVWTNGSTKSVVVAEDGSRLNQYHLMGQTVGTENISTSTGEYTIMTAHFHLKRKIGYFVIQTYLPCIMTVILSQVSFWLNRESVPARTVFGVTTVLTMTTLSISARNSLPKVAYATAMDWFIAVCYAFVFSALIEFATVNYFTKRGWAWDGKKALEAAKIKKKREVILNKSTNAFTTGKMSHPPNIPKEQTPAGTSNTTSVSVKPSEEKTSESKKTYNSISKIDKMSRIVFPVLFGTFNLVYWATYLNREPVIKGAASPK
# Sequence of α5-containing GABAA R (P28472 26-473 partner): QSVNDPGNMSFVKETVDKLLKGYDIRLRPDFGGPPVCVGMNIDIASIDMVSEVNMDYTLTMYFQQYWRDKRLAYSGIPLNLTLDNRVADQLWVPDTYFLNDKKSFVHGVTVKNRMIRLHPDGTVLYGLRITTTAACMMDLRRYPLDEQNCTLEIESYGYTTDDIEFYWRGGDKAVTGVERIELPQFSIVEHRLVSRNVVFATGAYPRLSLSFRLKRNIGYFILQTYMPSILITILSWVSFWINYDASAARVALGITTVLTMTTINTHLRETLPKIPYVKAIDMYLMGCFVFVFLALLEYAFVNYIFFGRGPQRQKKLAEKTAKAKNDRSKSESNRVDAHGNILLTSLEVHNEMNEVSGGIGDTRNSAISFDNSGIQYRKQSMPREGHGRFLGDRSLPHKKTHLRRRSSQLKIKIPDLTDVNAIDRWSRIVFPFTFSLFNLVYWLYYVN
# Sequence of α5-containing GABAA R (P18507 40-475): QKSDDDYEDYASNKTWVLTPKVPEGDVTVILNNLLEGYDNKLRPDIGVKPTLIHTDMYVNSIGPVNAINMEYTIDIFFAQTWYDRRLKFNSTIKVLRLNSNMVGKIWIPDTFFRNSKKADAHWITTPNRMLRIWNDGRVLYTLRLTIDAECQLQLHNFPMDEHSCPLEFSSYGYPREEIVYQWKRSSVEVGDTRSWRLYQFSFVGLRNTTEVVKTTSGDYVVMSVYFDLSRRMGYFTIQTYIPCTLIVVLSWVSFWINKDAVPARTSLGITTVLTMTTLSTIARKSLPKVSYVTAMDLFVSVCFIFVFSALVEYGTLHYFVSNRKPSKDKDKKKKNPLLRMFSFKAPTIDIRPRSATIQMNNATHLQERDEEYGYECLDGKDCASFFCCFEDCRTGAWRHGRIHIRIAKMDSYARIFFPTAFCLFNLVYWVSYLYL
# GABAA α5 receptor = biological target: T1, GABAA α5 receptor (Rattus norvegicus, UniProt P19969); experiment: GABAA α5 receptor occupancy in vivo with Ro 15-4513 tracer; parameters: species or system Long Evans rats
# T1 construct: from tissue
# T1 sequence (P19969 32-464 limits assumed): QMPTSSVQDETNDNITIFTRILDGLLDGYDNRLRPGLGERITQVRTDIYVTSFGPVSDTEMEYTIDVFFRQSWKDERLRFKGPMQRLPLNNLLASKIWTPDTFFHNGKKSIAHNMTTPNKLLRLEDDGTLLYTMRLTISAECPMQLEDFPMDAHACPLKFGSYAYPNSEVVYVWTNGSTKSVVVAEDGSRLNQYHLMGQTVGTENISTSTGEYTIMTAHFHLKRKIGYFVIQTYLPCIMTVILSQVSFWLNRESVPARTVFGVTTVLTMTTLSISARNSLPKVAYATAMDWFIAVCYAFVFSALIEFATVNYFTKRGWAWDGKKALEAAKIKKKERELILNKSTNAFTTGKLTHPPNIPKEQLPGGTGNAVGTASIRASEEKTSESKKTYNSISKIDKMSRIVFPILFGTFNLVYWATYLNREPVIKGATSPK
# From the text: as §1
# aged-impaired (AI) rats = experiment: Radial Arm Maze (RAM) behavioral task, spatial memory retention; type: in vivo, rat; conditions: 3 mg/kg ip, two-hour delay RAM
# Experimental: The effects of methyl 3,5-diphenylpyridazine-4-carboxylate on the in vivo spatial memory retention of aged-impaired (AI) rats were assessed in a Radial Arm Maze (RAM) behavioral task using vehicle control and four different dosage levels of methyl 3,5-diphenylpyridazine-4-carboxylate ([…]). RAM behavioral tasks were performed on eight AI rats. All five treatment conditions (vehicle and four dosage levels) were tested on all eight rats.
# The RAM apparatus used consisted of eight equidistantly-spaced arms. An elevated maze arm (7 cm width×75 cm length) projected from each facet of an octagonal center platform (30 cm diameter, 51.5 cm height). Clear side walls on the arms were 10 cm high and were angled at […] to form a trough. A food well (4 cm diameter, 2 cm deep) was located at the distal end of each arm. Froot Loops™ (Kellogg Company) were used as rewards. Blocks constructed of Plexiglas™ (30 cm height×12 cm width) could be positioned to prevent entry to any arm. Numerous extra maze cues surrounding the apparatus were also provided.
# The AI rats were initially subjected to a pre-training test (Chappell et al. Neuropharmacology 37: 481-487, 1998). The pre-training test consisted of a habituation phase (4 days), a training phase on the standard win-shift task (18 days) and another training phase (14 days) in which a brief delay was imposed between presentation of a subset of arms designated by the experimenter (e.g., 5 arms available and 3 arms blocked) and completion of the eight-arm win-shift task (i.e., with all eight arms available).
# In the habituation phase, rats were familiarized to the maze for an 8-minute session on four consecutive days. In each of these sessions, food rewards were scattered on the RAM, initially on the center platform and arms and then progressively confined to the arms. After this habituation phase, a standard training protocol was used, in which a food pellet was located at the end of each arm. Rats received one trial each day for 18 days. Each daily trial terminated when all eight food pellets had been obtained or when either 16 choices were made or 15 minutes had elapsed. After completion of this training phase, a second training phase was carried out in which the memory demand was increased by imposing a brief delay during the trial. At the beginning of each trial, three arms of the eight-arm maze were blocked. Rats were allowed to obtain food on the five arms to which access was permitted during this initial “information phase” of the trial. Rats were then removed from the maze for 60 seconds, during which time the barriers on the maze were removed, thus allowing access to all eight arms. Rats were then placed back onto the center platform and allowed to obtain the remaining food rewards during this “retention test” phase of the trial. […]
compound,measurement,setting,value
"COC(=O)c1c(-c2ccccc2)cnnc1-c1ccccc1 [Methyl 3,5-diphenylpyridazine-4-carboxylate]",fold increase in hippocampal exposure,[1]; dose from 0.1 to 1 mg/kg,12 fold
same,fold increase in hippocampal exposure,[1]; dose from 1 to 10 mg/kg,~5 fold
same,fold increase in plasma exposure,[1]; dose from 1 to 10 mg/kg,12 fold
same,α5 in vitro efficacy,α5-containing GABAA R,+27
same,effect on Ro 15-4513 binding in hippocampus and cerebellum,"GABAA α5 receptor; 0.01-10 mg/kg, i.v.","dose-dependently reduced Ro 15-4513 binding in hippocampus, without affecting cerebellum levels of Ro 15-4513; also recorded: blocked the binding of Ro154513 in the hippocampus but did not affect binding of Ro15413 in the cerebellum"
same,RO required for cognitive efficacy in this model,"GABAA α5 receptor; from exposure in aged rats at 3 mg/kg, i.p.",30-40%
same,GABAA α5 receptors occupied at behaviorally active exposures,"GABAA α5 receptor; hippocampus, exposures behaviorally active in aged-impaired rats",about 32%
same,"ED50 of receptor occupancy, ratio method","GABAA α5 receptor; i.v., hippocampus/cerebellum ratio method",1.8 mg/kg
same,receptor occupancy at 1 mg/kg,"GABAA α5 receptor; rat, iv, 1 mg/kg, i.v., depending on method used to determine RO, read-out: receptor occupancy at an exposure of 180 ng/g in hippocampus",32 to 39%
same,receptor occupancy at 10 mg/kg,"GABAA α5 receptor; rat, iv, 10 mg/kg",> 90%
same,ED50,"GABAA α5 receptor; rat, iv, read-out: ED50 of receptor occupancy, using L-755,608 to define occupancy",1.1 mg/kg
same,average no. of errors ± SEM in retention test,aged-impaired (AI) rats; AI rats,1.31±0.40
same,memory performance relative to vehicle control,"aged-impaired (AI) rats; t(7)=4.233, p=0.004",significantly improved memory performance
